Patent US7666414B2, “Methods for treating prostate cancer using modified antibodies to prostate-specific membrane antigen” (Cornell Research Foundation, Inc., priority 2001, dated 2010)
Read-outs that look alike come from different tables or passages of the source.

Experiments:
[1] = tested on: PSMA-positive 22RV1 xenografts; assay: Efficacy in castrate or intact scid mice bearing androgen-independent 22RV1 xenograft; assay type: in vivo, C.B-17 scid mice; details: 240 μg/kg, q3dX5
Method: Prostate tumors can be broadly classified as either androgen-dependent or androgen-independent. […] The 22RV1 cell line was originally developed as androgen-independent and can be grown as a xenograft in C.B-17 scid mice that have been left either intact or castrated. […] C.B-17 scid mice bearing CWR22 xenografts approximately 200 mm^3 in size received IV injections (200 μL constant volume) of the test articles according to the dosage and schedule shown in the Table 24.

[2] = tested on: LNCaP cells tumor xenografts; assay: Murine J591-DM1 immunoconjugate in LNCaP xenografts; assay type: in vivo, BALB/c mice; details: unconjugated, alone or with unconjugated mAb J591, intraperitoneal qday x 5 days
Method: Tumor xenografts of LNCaP cells were established in the right flank of BALB/c mice (5×10^6 cells injected subcutaneously). Animals were observed until tumors were visible (7-10 mm). Animals were then treated with PBS, unconjugated mAb J591, unconjugated DM1, both mAb J591 and DM1 but unconjugated, and J591-DM1 immunoconjugate (100, 200, 300, and 400 mcg/day intraperitoneal qday×5 days). The mAb J591 was modified to introduce dithiopyridyl groups and then conjugated to DM1 via a hindered disulfide bond, as described above. Unconjugated mAb J591 and DM1 were given in equimolar concentrations.
Tumor xenografts of both LNCaP cells (5×10^6 cells injected subcutaneously in the right flank) and PC3 cells (3×10^6 cells injected subcutaneously in the left flank) were established in BALB/c mice. Animals were observed until LNCaP tumors were visible (PC3 tumors were present but much smaller). Animals treated with J591-DM1 immunoconjugate: 300 mcg/day intraperitoneal qday×5 days
Tumor xenografts of LNCaP cells were established subcutaneously in the right flank of BALB/c mice. […]
All animals were photographed pre- and post-treatment and tagged for identification. Tumor volume was determined (length×width×depth) and closely followed. […]

CD-1 mice = tested on: CD-1 mice
Excerpt: Use of both mice and cynomolgus monkeys for nonclinical testing allowed comparison of exposure and toxicity across species on the basis of body surface area (mg/m^2), and thus aided in selecting the SSD for the proposed Phase 1 clinical trial.

[3] = tested on: PSMA-positive CWR22 xenografts; assay: Efficacy in PSMA-positive CWR22 xenografts; assay type: in vivo, C.B-17 scid mice
Method: (§1) Experiment: Male SCID mice were implanted by serial passage of CWR22 prostate tumor xenograft. […] All treatments were given intravenously. Tumor growth and animal health were continually monitored throughout the study with tumor growth measured every 3 days.
Experiment: Male C.B-17 SCID mice bearing CWR22 xenografts approximately 200 mm^3 in size received IV injections (200 μL constant volume) of the test articles according to the dose and schedule as shown in Table 22.
Male C.B-17 scid mice bearing CWR22 xenografts approximately 200 mm^3 in size received IV injections (200 μL constant volume) of the test articles according to the dose and schedule shown in the Table 23.
The objective of this study was to determine how much the dosing interval could be increased at this dosage before a loss of efficacy in terms of TGD would be observed. […] The growth delays for the other schedules were: q7d, 53.0 days; q21d, 48.0 days; and q28d, 26.9 days. Similar to other studies using the CWR22 xenograft model, no curative responses were observed, with all tumors eventually resuming growth (FIG. 18).
as §1, with “intravenously and on a schedule of every three days for 5 doses.” for “intravenously.”
as §1, with “intravenously and on a schedule of every seven days for 5 doses.” for “intravenously.”

## COc1cc2cc(c1Cl)N(C)C(=O)C[C@H](OC(=O)[C@H](C)N(C)C(=O)CCS)[C@]1(C)O[C@H]1[C@H](C)[C@@H]1C[C@@](O)(NC(=O)O1)[C@H](OC)/C=C/C=C(\C)C2 [DM1, reference compound]
[1]
  Relative TGD (TGD of castrate mice/TGD of intact mice): 1.4
[1]; Castrate Mice
  Tumor Growth Delay: 9.1 days
[1]; Intact Mice
  Tumor Growth Delay: 6.3 days
[2]
  lethality: died within 48 hours of treatment completion
CD-1 mice; DM1 0.86 mg/m^2 (0.29 mg/kg), single IV, CD-1 mice
  Degree of Toxicity and Major Target Organs: Slight mitosis/necrosis of epidermis
CD-1 mice; DM1 1.62 mg/m^2 ([…]), single IV, CD-1 mice
  Degree of Toxicity and Major Target Organs: Mild bone marrow myeloid
CD-1 mice; DM1 8.64 mg/m^2 (2.88 mg/kg), single IV, CD-1 mice
  mortality: 100% mortality attributed to severe
CD-1 mice; DM1 […]^2 (1.08 mg/kg), single IV, CD-1 mice
  elevated AST and ALT values: moderate mitosis/necrosis of liver; no
CD-1 mice; severely toxic dosage, single IV, CD-1 mice
  STD: 1.80 mg/kg
CD-1 mice; single IV administration
  toxicity compared to deJ591-DM1 at equimolar dosages: tended to be less toxic than deJ591-DM1 at lower dosages
CD-1 mice; single IV, CD-1 mice
  MTD: 1.08 mg/kg
[3]; Comparison II, 240 μg/kg, q3dX5
  Tumor Growth Delay: 9.5 days
[3]; every three days for 5 doses, IV, equimolar to 14.5 mg/kg deJ591-DM1
  effect on CWR22 xenograft tumor growth: some tumor growth delay
